Measurements reported in patent publication US20110223675A1, “DRUG RELEASE MEANS FROM LIPOSOMES AND METHOD FOR EVALUATING RELEASABILITY” (TERUMO KABUSHIKI KAISHA, priority 2008, published 2011).
Where a name gives a salt, the structure may show the parent alone.

Assay: drug releasability test of liposomes in a shift reagent solution
Type: physicochemical
Description: After 1:10 dilution of the sample with a stop solution, the drug, not contained in the liposomes, was separated by ultracentrifugation to provide a sample solution. Separately, 100 μl of a VCR aqueous solution having a different concentration was taken out, to which 900 μl of water was added. Moreover, this solution was diluted with water at 1:10 to provide a reference solution for calibration curve. The sample solution and reference solution were subjected to quantitative determination under the HPLC conditions indicated before with respect to the VCR determination except that an injected amount was at 50 μl only in this determination method.
After dilution of the sample with a stop solution at 1:10, the drug, not contained in the liposomes, was separated by ultracentrifugation. 1 ml of a 0.1 mol/l dihydrogen sodium phosphate solution having a pH of 3.0 was added to and mixed with 1 ml of a supernatant of the sample obtained after the ultracentrifugation to provide a sample solution. Separately, 1 ml of a 0.1 mol/l dihydrogen sodium phosphate solution having a pH of 3.0 was added to and mixed with 1 ml of/a DXR solution having a different concentration to prepare a reference solution for calibration curve. The sample solution and reference solution were subjected to measurement under HPLC conditions indicated with respect to the DXR determination.
Release rate (%)=amount of released drug/total drug amount×100
Ammonium acetate was dissolved so as to make ammonium ion concentrations of 5, 20, 25, 50 and 100 mM and the pH of the solutions was adjusted to 7.0 by use of a 0.1 M sodium hydroxide test solution. Moreover, sodium chloride was added to the solutions so that an osmotic pressure thereof was made at 300 mOsm, thereby providing shift reagent solutions.
The liposomes shown in Preparatory Example 1 were diluted with the shift reagent solution at 1:10 and heated to 37° C. 2.5, 5, 10, 15 and 30 minutes after commencement of the heating, samples were taken out. It is to be noted that the samples were stored under ice cooling before use. The quantitative determination of released VCR was made according to the method described hereinbefore.
Ammonium acetate was dissolved so as to make an ammonium ion concentration of 50 mM, followed by controlling the pH of the solution at 4.0, 5.0, 6.0, 7.0 and 8.0 by use of a 1 M sodium hydroxide test solution. […]
The liposomes shown in Preparatory Example 1 were diluted with the shift reagent solution at 1:10 and heated at 37° C. […] The released VCR was quantitatively determined by the method set out hereinbefore. […]
The liposomes shown in Preparatory Example 1 were diluted with the shift reagent solution at 1:10 and heated at 37° C. […] The quantitative determination of the released VCR was made according to the method set out hereinbefore. […]

| DXR releasability (250 mM ethylenediamine/phosphate buffer solution pH 7.4, 37° C., 0-4 hours) | VCR releasability versus pH of shift reagent solution (LIP1, 50 mM ammonium acetate, pH 4.0-8.0, 300 mOsm, 37° C.) | VCR release with amino compounds as shift reagent (LIP2, 50 mM 2-aminoethanol, ethylenediamine or diethylamine, pH 7.4, 37° C.) | SMILES | VCR release versus osmotic pressure of shift reagent solution (LIP1, 50 mM ammonium acetate, pH 7.0, 100-750 mOsm, 37° C.) |
| --- | --- | --- | --- | --- |
| could be released |  |  | COc1cccc2c1C(=O)c1c(O)c3c(c(O)c1C2=O)C[C@@](O)(C(=O)CO)C[C@@H]3O[C@H]1C[C@H](N)[C@H](O)[C@H](C)O1 [DXR, Doxorubicin hydrochloride] |  |
|  | promoted with increasing pH | can be released | CC[C@]1(O)C[C@H]2CN(CCc3c([nH]c4ccccc34)[C@@](C(=O)OC)(c3cc4c(cc3OC)N(C=O)[C@H]3[C@@](O)(C(=O)OC)[C@H](OC(C)=O)[C@]5(CC)C=CCN6CC[C@]43[C@@H]65)C2)C1 [VCR, Vincristine sulfate] | a smaller osmotic pressure of the shift reagent solution leads to more promoted release |
